Experimental data taken from ChEMBL document CHEMBL3860075, “Synthesis, characterization, and evaluation of (E)-methyl 2-((2-oxonaphthalen-1(2H)-ylidene)methylamino)acetate as a biological agent and an anion sensor” (Bioorg Med Chem, 2016).
≈ marks a conversion by molar mass, not a printed value. Calls of active or inactive are those of the source. No cut-off for these calls is given here.

How the values were obtained:
[1] = system: Candida tropicalis; test: Antimicrobial activity against Candida tropicalis ATCC 13803 after 24 hrs by broth microdilution assay; type: functional; conditions: ATCC 13803, 24 h
[2] = system: Enterococcus faecalis; test: Antimicrobial activity against Enterococcus faecalis ATCC 29212 after 24 hrs by broth microdilution assay; type: functional; conditions: ATCC 29212, 24 h
[3] = system: Pseudomonas aeruginosa; test: Antimicrobial activity against Pseudomonas aeruginosa ATCC 254992 after 24 hrs by broth microdilution assay; type: functional; conditions: ATCC 254992, 24 h
[4] = system: Proteus vulgaris; test: Antimicrobial activity against Proteus vulgaris ATCC 13315 after 24 hrs by broth microdilution assay; type: functional; conditions: ATCC 13315, 24 h
[5] = system: Bacillus spizizenii; test: Antimicrobial activity against Bacillus subtilis ATCC 6633 after 24 hrs by broth microdilution assay; type: functional; conditions: ATCC 6633, 24 h
[6] = system: Escherichia coli; test: Antimicrobial activity against Escherichia coli ATCC 35218 after 24 hrs by broth microdilution assay; type: functional; conditions: ATCC 35218, 24 h
[7] = Binding affinity to 0.5 equiv tetrabutylamonium fluoride anion assessed as decrease in N-H proton intensity by 1H NMR method
[8] = Binding affinity to 1 equiv tetrabutylamonium fluoride anion assessed as disappearance of peak by 1H NMR method
[9] = system: Salmonella typhimurium; test: Genotoxicity in Salmonella typhimurium TA98 at 0.5 to 500 ppm per plate in absence of S9 fraction by Ames test; type: toxicity, organism-based; conditions: salmonella enterica subsp. enterica serovar typhimurium
[10] = system: Staphylococcus aureus; test: Antimicrobial activity against Staphylococcus aureus ATCC 25923 after 24 hrs by broth microdilution assay; type: functional; conditions: ATCC 25923, 24 h
[11] = system: Candida albicans; test: Antimicrobial activity against Candida albicans ATCC 60193 after 24 hrs by broth microdilution assay; type: functional; conditions: ATCC 60193, 24 h
[12] = species: Bos taurus; test: Binding affinity to calf thymus DNA assessed as bathochromism at 3 10^-5M after 5 mins by UV-visible spectroscopic analysis
[13] = system: Escherichia coli; test: Antimicrobial activity against Escherichia coli ATCC 25922 after 24 hrs by broth microdilution assay; type: functional; conditions: ATCC 25922, 24 h
[14] = Binding affinity to cyanide anion assessed as compound color change from colorless to yellow at compound:anion ratio of 1:1 under natural light by colorimetric method
[15] = Binding affinity to cyanide anion assessed as compound color change from colorless to yellow at compound:anion ratio of 1:1 under UV light by colorimetric method
[16] = system: Salmonella typhimurium; test: Genotoxicity in Salmonella typhimurium TA100 at 0.5 to 500 ppm per plate in absence of S9 fraction by Ames test; type: toxicity, organism-based; conditions: salmonella enterica subsp. enterica serovar typhimurium
[17] = system: Escherichia coli; test: Induction of oxidative cleavage of Escherichia coli supercoiled pBR322 DNA assessed as increase in nicked circular form at 25 uM after 3 hrs in presence of H2O2 by agarose gel electrophoretic analysis
[18] = species: Bos taurus; test: Binding affinity to calf thymus DNA assessed as formation of intense band at 260 nanometer at 3 10^-5M after 5 mins by UV-visible spectroscopic analysis
[19] = Binding affinity to cyanide anion assessed as disappearance of peak at 430 nanometer at 5 10^-6M by UV-visible spectroscopic analysis
[20] = system: Escherichia coli; test: Induction of hydrolytic cleavage of Escherichia coli supercoiled pBR322 DNA assessed as increase in nicked circular form at 200 uM after 3 hrs by agarose gel electrophoretic analysis

## OC(Cn1cncn1)(Cn1cncn1)c1ccc(F)cc1F [FLUCONAZOLE]
[1]
  MIC: 32 µg/mL (≈ 104 µM)

## CC1(C)S[C@@H]2[C@H](NC(=O)[C@H](N)c3ccccc3)C(=O)N2[C@H]1C(=O)O [AMPICILLIN]
[2]
  MIC: 2 µg/mL (≈ 5.72 µM)
[3]
  MIC: 2 µg/mL (≈ 5.72 µM)
[4]
  MIC: 2 µg/mL (≈ 5.72 µM)
[5]
  MIC: 1 µg/mL (≈ 2.86 µM)

## COC(=O)CN/C=C1/C(=O)C=Cc2ccccc21
[1]
  MIC: 128 µg/mL (≈ 526 µM)
[6]
  MIC: 256 µg/mL (≈ 1050 µM)
[2]
  MIC: 256 µg/mL (≈ 1050 µM)
[7]
  Activity: Active
[3]
  MIC: 128 µg/mL (≈ 526 µM)
[8]
  Activity: Active
[9]
  Activity: Non-Toxic
[10]
  MIC: 128 µg/mL (≈ 526 µM)
[11]
  MIC: 128 µg/mL (≈ 526 µM)
[12]
  Activity: 1 to 4 nm
[13]
  MIC: 256 µg/mL (≈ 1050 µM)
[14]
  Activity: Active
[4]
  MIC: 256 µg/mL (≈ 1050 µM)
[15]
  Activity: Active
[16]
  Activity: > 40%
[17]
  Activity: Active
[18]
  Activity: Active
[19]
  Activity: Active
[5]
  MIC: 128 µg/mL (≈ 526 µM)
[20]
  Activity: Active
